Patent publication US20250099464A1, “PHARMACEUTICAL COMPOSITIONS” (ViiV Healthcare UK (No.3) Limited, priority 2023, published 2025)

Test: Cabotegravir population pharmacokinetic (PopPK) model
Parameters: species or system human
Procedure: A cabotegravir population pharmacokinetic (PopPK) model was built based on PK data following cabotegravir (CAB) 200 mg/mL intramuscular (IM) injections collected in 16 historical studies (Population pharmacokinetics of cabotegravir following administration of oral tablet and long-acting intramuscular injection in adult HIV-1-infected and uninfected subjects. Han K, Baker M, Lovern M, Paul P, Xiong Y, Patel P, Moore K P, Seal C S, Cutrell A G, D'Amico R D, Benn P D, Landovitz R J, Marzinke M A, Spreen W R, Ford S L. Br J Clin Pharmacol. 2022 October; 88(10):4607-4622. doi: 10.1111/bcp.15439. Epub 2022 Jul. 4. PMID: 35695476) and updated based on PK data from 19 studies: LAI116585, LAI117010, LAI117011, LAI117020, 201741, 201479, 201480, 205696, LAI116482 (LATTE), LAI115428, LAI116815, 200056 (LATTE-2), 201120 (ECLAIR), 201103 (HPTN077), 201584 (FLAIR), 201585 (ATLAS), 207966 (ATLAS-2M), 201738 (HPTN 083) and 201739 (HPTN 084). A total of 34,850 CAB plasma concentrations collected at various time points from 2,694 participants were used to build this PopPK model. […] The simulations were performed as follows: covariates including body weight, BMI and smoking status were resampled 5000 times from the distribution of these covariates for males and females, generating 5000 virtual male subjects and 5000 virtual female subjects. Individual PK parameters of the virtual subjects were calculated using subject-specific covariates and using the population parameter estimates, subject-specific NONMEM inter-individual errors (ETAs) sampled from the distributions that are decided by the estimated variance-covariate matrix of between-subject variability from the final population PK model. Concentration-versus-time profiles of the virtual subjects were calculated using the individual PK parameters. Residual variability (EPS) was included in the simulation. Median and 10th and 90th percentiles (80% prediction interval) of the simulated concentration-versus-time profiles of the virtual males and females were calculated. […]

C[C@H]1CO[C@@H]2Cn3cc(C(=O)NCc4ccc(F)cc4F)c(=O)c(O)c3C(=O)N12 [cabotegravir, (3S,11aR)—N-((2,4-difluorophenyl)methyl)-6-hydroxy-3-methyl-5,7-dioxo-2,3,5,11,11a-hexahydro(1,3)oxazolo(3,2-a)pyrido(1,2-d)pyrazine-8-carboxamide]
KA2 in relation to BMI: decreased with increasing BMI
KA2 in relation to needle length: lower with longer needle length
Long-acting intramuscular gluteal absorption rate constant (KA2), lower in people assigned female at birth than people assigned male at birth (CAB 200 mg/mL IM injections): 46.5%
